Values of other authors in patent publication US20090104287A1, “Protocol for AIDS prevention and treatment by nutritional methods” (priority 2002, published 2009).

Assays:
HIV-infected patients = details: supplementation (usually given as N-acetyl cysteine)
[1] = system: HIV seropositive patients; details: supplementation

| Structure (SMILES) | glutathione in CD4 T cells (HIV-infected patients) | replenishing whole blood and T cell glutathione [1] |
| --- | --- | --- |
| N[C@@H](CS)C(=O)O [cysteine] | replenishes low glutathione in CD4 T cells |  |
| CC(=O)N[C@@H](CS)C(=O)O [N-acetyl cysteine] |  | often seems effective in replenishing both whole blood and T cell glutathione |
